Here are results for four molecules from patent US10626100B2, “Selective HDAC6 inhibitors” (The Trustees of Columbia University in the City of New York, priority 2013, dated 2020).

Structures are written as SMILES. Entries after “also recorded” stand apart in the source; their conditions may differ.

The target of one series is HDAC1 (Homo sapiens, UniProt Q13547). Kind of series: Inhibition of recombinant HDAC1. It counts as biochemical. Conditions: read-out: IC50 (nM) HCAC1.
Series [1] deals with acetylated alpha-tubulin and acetylated histone H3 in LNCaP (human prostate cancer cells). Kind of series: Accumulation of acetylated proteins in LNCaP cells (western blot). It counts as cell-based. As to conditions: LNCaP cells, FIG. 2. As to the method: FIG. 2. Blot showing accumulation of acetylated alpha-tubulin and acetylated histone H3 in LNCaP (human prostate cancer cells) cultured with compounds 8 or 11. GADPH used as loading control.
FIG. 5. Western blots of acetylated alpha-tubulin (Acet-Tub) and acetylated histone H3 (Acet-H3) in HFS (normal) and LNCaP (transformed) cells treated with compound 8 at 8, 16, 32, and 64 μM for 24 h. Western blots of GAPDH and total histone H3 (Total-H3) are loading controls.
(§1) Recombinant HDAC1 and HDAC6 are used to evaluate the selective inhibitory potency of each compound. Cell based assays: Normal cells (Human Foreskin Fibroblast cells), LNCaP (human prostate cancer cells), MCF-7 (human breast cancer cells, A549 (human adenocarcinoma of lung cells) and ARP-1 (human multiple myeloma cells) are used in these assays. Cells were cultured for up to 72 hr without and with the potential HDAC6-selective inhibitor. SAHA was used as a control. Cell number and cell viability were determined by enumeration. Proteins were extracted from cells and assayed for accumulation of acetylated tubulin and acetylated histones. All methods are described in Namdar et al., PNAS, 2010, 107:20003-8. In vivo animal studies: Potential HDAC6 inhibitor compounds are further assayed by administration to mice for up to 5 days with daily injections. Animals are sacrificed and tissues are analyzed for accumulation of acetylated tubulin and acetylated histones.
A general note: In western blotting, separated proteins are transferred to a membrane and probed.

Another series deals with T1, HDAC6 (Homo sapiens, UniProt Q9UBN7).
T1 sequence (Q9UBN7 1-1215): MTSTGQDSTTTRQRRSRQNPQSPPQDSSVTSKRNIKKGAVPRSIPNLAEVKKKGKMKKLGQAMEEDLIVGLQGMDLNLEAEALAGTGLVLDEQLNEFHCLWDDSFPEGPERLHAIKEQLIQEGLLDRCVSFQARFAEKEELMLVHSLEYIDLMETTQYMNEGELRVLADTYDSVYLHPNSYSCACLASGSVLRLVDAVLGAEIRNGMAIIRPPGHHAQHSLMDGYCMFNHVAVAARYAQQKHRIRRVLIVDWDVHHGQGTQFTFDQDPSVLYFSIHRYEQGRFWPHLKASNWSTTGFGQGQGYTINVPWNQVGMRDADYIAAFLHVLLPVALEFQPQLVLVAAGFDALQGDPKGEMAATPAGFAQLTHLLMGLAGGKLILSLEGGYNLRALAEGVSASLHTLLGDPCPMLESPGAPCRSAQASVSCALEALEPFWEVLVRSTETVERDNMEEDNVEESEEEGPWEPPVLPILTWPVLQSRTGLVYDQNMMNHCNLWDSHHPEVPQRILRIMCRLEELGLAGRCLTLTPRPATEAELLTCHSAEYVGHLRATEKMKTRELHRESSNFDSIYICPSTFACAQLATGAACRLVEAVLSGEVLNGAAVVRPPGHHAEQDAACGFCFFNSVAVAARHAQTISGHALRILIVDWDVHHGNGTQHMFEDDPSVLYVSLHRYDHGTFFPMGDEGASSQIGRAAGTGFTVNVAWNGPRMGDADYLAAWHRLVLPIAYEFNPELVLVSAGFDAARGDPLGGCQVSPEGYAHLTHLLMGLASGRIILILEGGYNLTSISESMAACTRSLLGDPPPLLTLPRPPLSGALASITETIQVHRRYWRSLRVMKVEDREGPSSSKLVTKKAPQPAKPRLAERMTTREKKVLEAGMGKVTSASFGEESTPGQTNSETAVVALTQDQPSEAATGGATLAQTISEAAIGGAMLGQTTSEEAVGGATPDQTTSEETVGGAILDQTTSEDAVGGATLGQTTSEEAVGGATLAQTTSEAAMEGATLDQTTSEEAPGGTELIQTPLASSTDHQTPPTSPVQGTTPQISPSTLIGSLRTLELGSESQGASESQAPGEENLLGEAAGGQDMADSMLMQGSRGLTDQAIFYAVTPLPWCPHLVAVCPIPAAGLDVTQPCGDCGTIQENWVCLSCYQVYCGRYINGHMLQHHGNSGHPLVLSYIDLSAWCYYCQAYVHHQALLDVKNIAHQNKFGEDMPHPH
Put plainly: Inhibition of recombinant HDAC6. As to conditions: for Ratio: HDAC1/HDAC6: ratio of IC50 HDAC1 to IC50 HDAC6.

Series [2] has as its system acetylated alpha-tubulin and acetylated histone H3 in LNCaP (human prostate cancer cells). As to conditions: SAHA; literature cited, cells not given; cited from earlier work.
The test system of series [3] is LNCaP (human prostate adenocarcinoma) cells. Kind of series: Cell growth and viability of LNCaP cells. It counts as cell-based. As to conditions: SAHA control. The method, then: FIG. 3. Cell growth of HFS (normal) and LNCaP (transformed) cells treated with compound 8 over 72 h.
FIG. 4. Cell viability of HFS (normal) and LNCaP (transformed) cells treated with compound 8 over 72 h.
as §1
The effect of compound 8 on the cell growth and viability of normal (HFS, human foreskin fibroblast) and transformed (LNCaP, human prostate adenocarcinoma) cells cultured with 8, 16, 32 or 64 μM HPB for up to 72 h was evaluated.

Series [4] has as its system acetylated alpha-tubulin and histones in CWR22 tumors and spleen. Kind of series: Acetylated lysine patterns in CWR22 tumors and spleen. It counts as in vivo, nude mice. From the text: Tumors and spleen are removed from the animals, and histones and proteins are extracted for the detection of acetylated lysine patterns.
Series [5] deals with androgen-dependent CWR22 human prostate cancer xenograft. Kind of series: CWR22 human prostate cancer xenograft in nude mice. Conditions: 21 days; daily 300 mg/kg compound 8 or weekly 3 mg/kg etoposide alone. It is filed as in vivo.

Chain of HDAC1 (Q13547 whole entry): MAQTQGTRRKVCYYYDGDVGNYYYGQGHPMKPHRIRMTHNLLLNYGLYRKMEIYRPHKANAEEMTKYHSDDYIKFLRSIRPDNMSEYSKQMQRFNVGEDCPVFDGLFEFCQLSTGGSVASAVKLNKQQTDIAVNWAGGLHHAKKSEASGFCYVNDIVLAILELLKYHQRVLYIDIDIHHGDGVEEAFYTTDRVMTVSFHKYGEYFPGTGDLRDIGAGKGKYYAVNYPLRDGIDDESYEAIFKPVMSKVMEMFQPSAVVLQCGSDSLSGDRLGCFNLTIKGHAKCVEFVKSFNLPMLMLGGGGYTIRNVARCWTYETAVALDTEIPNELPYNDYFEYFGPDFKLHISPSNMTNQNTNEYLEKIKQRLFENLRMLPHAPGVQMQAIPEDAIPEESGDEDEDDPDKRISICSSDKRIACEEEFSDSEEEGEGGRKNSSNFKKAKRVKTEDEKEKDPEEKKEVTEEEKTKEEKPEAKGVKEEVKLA

For `O=C(NO)c1ccc(CN(CCO)C(=O)c2ccccc2)cc1` [Compound 11, N-hydroxy-4-((N-(2-hydroxyethyl)-2-benzamido)methyl)benzamide], the IC50 at HDAC1 stood at 270 nM. In series [1], the “accumulation of acetylated histones (H3)” value was “did not cause accumulation of actylated histones; also recorded: without induction of H3 acetylation” and the “accumulation of acetylated α-tubulin” value is given as “caused the accumulation of acetylated α-tubulin; also recorded: significant levels of tubulin acylation were present”. At HDAC6, the IC50 was found to be 0.011 µM and the “Ratio: HDAC1/HDAC6” value came to 24.54.

Consider `O=C(CCCCCCC(=O)Nc1ccccc1)NO` [SAHA, suberoylanilide hydroxamic acid, reference compound], for which, in series [2], the “accumulation of acetylated alpha-tubulin” value is “induced the accumulation of acetylated alpha-tubulin and histone H3”; the “accumulation of acetylated histone H3” value is “induced the accumulation of acetylated alpha-tubulin and histone H3”. Further, the “Ratio: HDAC1/HDAC6” value on HDAC6 came out at 3.09. For the same molecule, in series [3], the “death of LNCaP cells” value was “kills LNCaP cells”.

For `O=C(CCCCCCC(=O)Nc1ccc([C@H]2O[C@@H](CSc3nc(-c4ccccc4)c(-c4ccccc4)o3)C[C@@H](c3ccc(CO)cc3)O2)cc1)NO` [Tubacin, reference compound], the IC50 at HDAC1 came out at 193 nM.

Take `COc1cc([C@@H]2c3cc4c(cc3[C@@H](O[C@@H]3O[C@@H]5CO[C@@H](C)O[C@H]5[C@H](O)[C@H]3O)[C@H]3COC(=O)[C@H]23)OCO4)cc(OC)c1O` [etoposide, reference compound]: the “accumulation of histones in tumors, single agent” value in series [4] (mice injected with compound 8 alone or etoposide) is listed as “Increased levels of accumulation of histones”. Moreover, the “accumulation of acetylated alpha-tubulin in CWR22 tumors and spleen, single agent” value in series [4] (mice treated with compound 8 or etoposide) is recorded as “increased accumulation of acetylated alpha-tubulin”. Moreover, in series [5], the “growth of established CWR22 tumors, single agent” value was “no significant suppression of the growth” and the “weight loss, single agent” value was “no weight loss”.

Usually IC50 stands for the midpoint of a concentration-inhibition curve.
